Values joined by “and” are separate entries in the source; they are usually repeats but may differ in a detail not shown here. Identical values can stand only once. Blank lines part the entries; values can stand above or below the compound they belong to.
Key:
[1] = Storage stability of beta-keto calcium salt prodrug of Nabumetone (17 days at 60° C., HPLC); assay type: physicochemical; settings: for Relative amount of calcium salt beta-keto prodrug/Nabumetone remaining after 17 days at 60° C.: dry calcium salt, oven at 60° C.
[2] = In-vitro hydrolysis of Nabumetone beta-keto ester pro-prodrug and release of Nabumetone in model blood electrolyte solution at 37° C.; assay type: physicochemical; settings: model blood solutes solution
[3] = Aqueous solubility of sodium beta-keto salt prodrug of Nabumetone (Example 13b); assay type: physicochemical; settings: clear liquid after 3.5 h at 37° C. in 0.5 M NaOH; 200 μL diluted with 5.0 ml mobile phase
Protocol: 12.1 mg of the of ethyl-5-(6-methoxy-2-naphthyl)-beta-keto-pentanoate product prepared and purified as in Example 8 was mixed with 25 mL of a 0.5 M aqueous solution NaOH and homogenised on a vortex mixer. […] 15 minutes after preparation of the sample, the sample was transferred to an oil bath set at 37° C. with continuous gentle magnetic stirring, and kept there for 3.5 hours. Crystalline flakes remained in the sample at the end of the 3.5 hours heat-treatment, and the sample was thereafter centrifuged and the clear liquid above the sedimented crystals was analysed by HPLC as described above.
After storage around one hour at room temperature a fraction of the sample was then filtered twice through a 0.2 μm filter (Whatman, 0.2 μm PS) fitted to a syringe to give a clear solution. 200 μL of this filtered solution was transferred, in a tightly closed vessel, to an oil bath at 95° C. and kept at this temperature for about 5 hours to bring about quantitative decarboxylation of the labile, dissolved beta-keto carboxylic salt prodrug derivative of Nabumetone.
The heated sample was then mixed with 35 mL of mobile phase (see Example 1) whereby a few solid crystals (comprising Nabumetone) was seen to not dissolve. In order to assure a correct sampling for HPLC analysis, 5 mL of the 35 mL sample was filtered through a 0.2 μm filter, after the whole 35 mL sample had been pH adjusted to 4.21 by 300 μL 0.1 M HCl+100 μL 1 M HCl, to assure that the pH of the sample was close to the pH of the mobile phase itself (pH 4.30). The filtered solution was thereafter analysed by HPLC and found to contain 0.777 mg Nabumetone per liter. If recalculated to the corresponding concentration of nabumetone equivalents in the form of the beta-keto salt prodrug present in dissolved form in the filtered 200 μl sample that was subsequently heat-treated to form Nabumetone above, the obtained concentration corresponds to a Nabumetone concentration of 136.7 mg Nabumetone per liter in the clear aqueous solution, at room temperature, before the heat-treatment at 95° C.

[4] = Storage stability of benzoylacetate salts and their corresponding acid (HPLC or gravimetric); assay type: physicochemical; settings: for weight % of initial amount: Solid benzoylacetic acid, room T and ambient indoor humidity
Protocol: A 0.2 M solution of ethyl benzoyl acetate (90%, Sigma Aldrich) in 0.5 M NaOH (aq) was prepared at room temperature and stirred for typically 5-24 hours, still at room temperature. After this time a major part of the ethyl benzoyl acetate had been transformed into dissolved sodium benzoyl acetate, as evidenced by monitoring the reaction by analysis of samples by reversed phase HPLC. Some acetophenone and remaining ethyl benzoyl acetate were typically present in the samples, but in minor amounts. The method employed a C8 column with an inner diameter of 150×4.6 mm and 5 micron particles. The mobile phase consisted of 400 ml deionized water+600 ml acetonitrile+0.196 g H3PO4 (85%)+2.760 g NaH2PO4*H2O. The flow rate was set to 1.0 mL/min and UV detection at 254 nm was employed for analysis of the compounds ethylbenzoylacetate (precursor), benzoylacetate (model prodrug) and acetophenone (model drug).
The storage stability of the sodium and calcium salts of benzoylacetate, and of benzoylacetic acid, in solid form, and in aqueous solutions, was investigated by storage of samples under various conditions (see Table 3a above) with regular HPLC- or gravimetric measurements of the samples from time to time. Samples denoted “neutralized” were prepared from a solution prepared as described in Example 1, which was neutralized with diluted HCl after performing the steps in Example 1.
From the data it can be concluded that the best storage stability at room temperature is obtained by storage in the form of the calcium salt.

[5] = Sustained release of acetophenone in vitro in pig blood at 37° C.; settings: for Benzoyl acetate ion concentration: pig blood pH 6.63

Compound: 5-(6-methoxy-2-naphthyl)-beta-keto-pentanoate [Beta keto salt prodrug]
- half life ([1]; calcium salt form at 20° C., rule of thumb of doubling of reaction rate per 10° C.): ~270 days
- Obtained value (area units) ([1]; dry calcium salt after 17 days at 60° C., redissolved in water, HPLC): 1591 area units
- Relative amount of calcium salt beta-keto prodrug/Nabumetone remaining after 17 days at 60° C. [1]: 54.7%
- Relative amount of calcium salt beta-keto prodrug/Nabumetone remaining after 17 days at 60° C. ([1]; listed as calcium beta-keto salt prodrug of Nabumetone): more than 50%
- Expected value if no breakdown occured during storage and a 100% yield was obtained upon precipitation with calcium chloride ([1]; recalculated for dilution): 55938 area units

- Pro-prodrug/beta-keto ester (HPLC peak area) ([2]; Time 0.00 hours): 1440 arbitrary units
- Pro-prodrug/beta-keto ester (HPLC peak area) ([2]; Time 0.67 hours): 1368 arbitrary units
- Pro-prodrug/beta-keto ester (HPLC peak area) ([2]; Time 1.67 hours): 1395 arbitrary units
- Pro-prodrug/beta-keto ester (HPLC peak area) ([2]; Time 2.67 hours): 1145 arbitrary units
- Pro-prodrug/beta-keto ester (HPLC peak area) ([2]; Time 4.58 hours): 1130 arbitrary units
- Pro-prodrug/beta-keto ester (HPLC peak area) ([2]; Time 22.6 hours): 780 arbitrary units
- Pro-prodrug/beta-keto ester (HPLC peak area) ([2]; Time 28.8 hours): 672 arbitrary units
- Pro-prodrug/beta-keto ester (HPLC peak area) ([2]; Time 48.8 hours): 618 arbitrary units
- Pro-prodrug/beta-keto ester (HPLC peak area) ([2]; Time 53.6 hours): 0 arbitrary units
- Pro-prodrug/beta-keto ester (HPLC peak area) ([2]; Time 121.25 hours): 0 arbitrary units
- Pro-prodrug/beta-keto ester (HPLC peak area) ([2]; Time 145.0 hours): 0 arbitrary units
- Pro-prodrug/beta-keto ester (HPLC peak area) ([2]; Time 172.6 hours): 0 arbitrary units
- Pro-prodrug/beta-keto ester (HPLC peak area) ([2]; Time 197.3 hours): 0 arbitrary units
- Pro-prodrug/beta-keto ester (HPLC peak area) ([2]; Time 218.4 hours): 0 arbitrary units
- Pro-prodrug/beta-keto ester (HPLC peak area) ([2]; Time 293.7 hours): 0 arbitrary units
- Pro-prodrug/beta-keto ester (HPLC peak area) ([2]; Time 335 hours): 0 arbitrary units
- Area at retention time […] characteristic for detection of the beta-keto ester pro-prodrug [3]: 632 arbitrary units
Compound: CCOC(=O)CC(=O)CCc1ccc2cc(OC)ccc2c1 [Pro-prodrug/beta-keto ester, ethyl-5-(6-methoxy-2-naphthyl)-beta-keto-pentanoate]
- Pro-prodrug/beta-keto ester (HPLC peak area) ([2]; Time 70.3 hours): 227 arbitrary units and 245 arbitrary units

Compound: COc1ccc2cc(CCC(=O)CC(=O)O)ccc2c1 [Prodrug/beta-keto anion, 5-(6-methoxy-2-naphthyl)-beta-keto-pentanoate]
- Prodrug/beta-keto anion (HPLC area) ([2]; Time 0.00 hours): 2055 arbitrary units
- Prodrug/beta-keto anion (HPLC area) ([2]; Time 0.67 hours): 2313 arbitrary units
- Prodrug/beta-keto anion (HPLC area) ([2]; Time 1.67 hours): 2383 arbitrary units
- Prodrug/beta-keto anion (HPLC area) ([2]; Time 2.67 hours): 2266 arbitrary units
- Prodrug/beta-keto anion (HPLC area) ([2]; Time 4.58 hours): 2204 arbitrary units
- Prodrug/beta-keto anion (HPLC area) ([2]; Time 22.6 hours): 2079 arbitrary units
- Prodrug/beta-keto anion (HPLC area) ([2]; Time 28.8 hours): 2284 arbitrary units
- Prodrug/beta-keto anion (HPLC area) ([2]; Time 48.8 hours): 2312 arbitrary units
- Prodrug/beta-keto anion (HPLC area) ([2]; Time 53.6 hours): 2350 arbitrary units
- Prodrug/beta-keto anion (HPLC area) ([2]; Time 70.3 hours): 2087 arbitrary units and 2313 arbitrary units
- Prodrug/beta-keto anion (HPLC area) ([2]; Time 96.8 hours): 1915 arbitrary units and 1922 arbitrary units
- Prodrug/beta-keto anion (HPLC area) ([2]; Time 121.25 hours): 1620 arbitrary units
- Prodrug/beta-keto anion (HPLC area) ([2]; Time 145.0 hours): 1444 arbitrary units
- Prodrug/beta-keto anion (HPLC area) ([2]; Time 172.6 hours): 1220 arbitrary units
- Prodrug/beta-keto anion (HPLC area) ([2]; Time 197.3 hours): 1043 arbitrary units
- Prodrug/beta-keto anion (HPLC area) ([2]; Time 218.4 hours): 943 arbitrary units
- Prodrug/beta-keto anion (HPLC area) ([2]; Time 293.7 hours): 400 arbitrary units
- Prodrug/beta-keto anion (HPLC area) ([2]; Time 335 hours): 398.5 arbitrary units

- weight % of initial amount ([4]; storage time 0 days): 100 weight %
- weight % of initial amount ([4]; storage time 9 days): 94.7 weight %
- weight % of initial amount ([4]; storage time 23 days): 87.4 weight %
- weight % of initial amount ([4]; storage time 27 days): 85.4 weight %
- weight % of initial amount ([4]; storage time 29 days): 84.4 weight %
- weight % of initial amount ([4]; storage time 35 days): 81.9 weight %
- weight % of initial amount ([4]; storage time 42 days): 79.4 weight %
- weight % of initial amount ([4]; storage time 52 days): 73.6 weight %
- half-life ([4]; solid dry acid, typical indoor conditions): ~100 days
Compound: O=C(O)CC(=O)c1ccccc1 [benzoylacetic acid]

Compound: benzoyl acetate [Benzoyl acetate ion]
- half life ([5]; pig blood pH 6.63, 37° C.): about 3 hours
- period of sustained release of the acetophenone (model drug) ([5]; pig blood pH 6.63, 37° C.): at least 6 hours
- Benzoyl acetate ion concentration ([5]; Time at 37° C. 0.25): 1.83 mM
- Benzoyl acetate ion concentration ([5]; Time at 37° C. 1.33): 1.54 mM
- Benzoyl acetate ion concentration ([5]; Time at 37° C. 2.58 (sampling time possibly exchanged with 4.75)): 1.17 mM
- Benzoyl acetate ion concentration ([5]; Time at 37° C. 4.75 (sampling time possibly exchanged with 2.58)): 0.929 mM
- Benzoyl acetate ion concentration ([5]; Time at 37° C. 5.58): 0.724 mM
- Benzoyl acetate ion concentration ([5]; Time at 37° C. 6.58): 0.641 mM
- Benzoyl acetate ion concentration ([5]; Time at 37° C. 22.58): 0.0356 mM
- Benzoyl acetate ion concentration ([5]; Time at 37° C. −0.17 (analysed just before heating to 37° C.)): 2.30 mM
